In the test the test system is Vγ9Vδ2 T cells. The test is described as follows: Activation of Vγ9Vδ2 T cells (TNF-α, flow cytometry) by HepG2 liver carcinoma cells co-cultured with expanded PBMC. The format is cell-based, human. The protocol: HepG2 cells were transduced with LV-vector, LV-BTN3A3 (R381H), or LV-shFDPS-BTN3A3 (R381H). Three days after transduction, cells were treated with or without 1 μM zoledronic acid. After 24 hours, the transduced HepG2 cells were co-cultured with 5×10^5 PBMC cells and IL-2 in a round bottom 96 well plate for 4 hours. The PBMC cells were pre-stimulated with zoledronic acid and IL-2 for 11 days to expand Vγ9Vδ2 T cells. After staining for Vγ9Vδ2 and TNF-α using fluorophore-conjugated anti TCR-Vδ2 and anti-TNF-α antibody, cells were analyzed via flow cytometry. Live cells were gated, and Vδ2+ and TNF-α+cells were selected on a dot blot. The activated cytotoxic Vγ9Vδ2 T cells appeared in the upper right quadrant of flow cytograms. Without zoledronic acid, the percent of TNF-α expressing Vγ9Vδ2 T cells was 0.6% with LV-vector, 9.5% with BTN3A3 (R381H), and 13.2% with the combination of LV-shFDPS-BTN3A3 (R381H). With zoledronic acid, the percent of TNF-α expressing Vγ9Vδ2 T cells was 7.2% with LV-vector, 17.8% with BTN3A3 (R381H), and 30.1% with the combination of LV-shFDPS-BTN3A3 (R381H).
HepG2 cells were transduced with LV-shFDPS or LV-shFDPS-IL-2. Three days after transduction, cells were treated with or without 1 μM zoledronic acid. After 24 hours, the transduced HepG2 cells were co-cultured with 5×10^5 PBMC cells and with or without IL-2 in a round bottom 96 well plate for 4 hours. The PBMC cells were pre-stimulated with zoledronic acid and IL-2 for 11 days to expand Vγ9Vδ2 T cells. After staining for Vγ9Vδ2 and TNF-α using fluorophore-conjugated anti TCR-Vδ2 and anti-TNF-α antibody, cells were analyzed via flow cytometry. Live cells were gated, and Vδ2+ and TNF-α+ cells were selected on a dot blot. The activated cytotoxic Vγ9Vδ2 T cells appeared in the upper right quadrant of flow cytograms. With only zoledronic acid, the percent of TNF-α expressing Vγ9Vδ2 T cells was 7.5% with LV-shFDPS and 20.1% with LV-shFDPS-IL-2. With zoledronic acid and IL-2, the percent of TNF-α expressing Vγ9Vδ2 T cells was 27.8% with LV-shFDPS and 24.7% with LV-shFDPS-IL-2.
HepG2 liver carcinoma cells were transduced with Lv-shFDPS, Lv-FDPS-IL-15 (expressing both shRNAFDPS and the human cytokine interleukin 15) or Lv-control and cultured for 72 hours. Zoledronic acid (1 μM) was added to (1) cells transduced with Lv-shFDPS, (2) cells transduced with Lv-FDPS-IL-15, and (3) HepG2 cells transduced with Lv-control. Treated cells were cultured for 24 hours. Lv-shFDPS transduced cells, Lv-FDPS-IL-15 transduced cells, and Lv-control transduced cells were co-cultured with PBMC enriched for Vγ9Vδ2 cells plus a protein transport inhibitor (BD GolgiStop) for 4 hours. After 4 hours of stimulation, cells were collected and labeled with Vδ2 phycoerythrin (PE) and TNFαallophycocyanin (APC), and the labeled cells were analyzed by flow cytometry.
HepG2 cells were transduced with LV-control or LV-FDPS shRNA #4 (SEQ ID NO: 4) or LV-GGPS1 shRNA #1 (SEQ ID NO: 70) for 3 days. Two days after transduction, cells were treated with or without 1 μM zoledronic acid. After 24 hours, the transduced HepG2 cells were co-cultured for 4 hours with 5×10^5 PBMC cells in a round bottom 96 well plate. The PBMC cells had been pre-stimulated with zoledronic acid plus IL-2 for at least 11 days to expand Vγ9Vδ2 T cells. After staining for Vγ9Vδ2 and TNF-α using fluorophore-conjugated anti TCR-Vδ2 and anti-TNF-α antibody, cells were analyzed via flow cytometry. Live cells were gated; Vδ2+ and TNF-α+ cells were identified on a dot blot. The activated cytotoxic Vγ9Vδ2 T cells appeared in the upper right quadrant of the flow cytograms. Without zoledronic acid, LV-control stimulated 0.36% of TNF-α expressing Vγ9Vδ2 T cells whereas LV-FDPS shRNA #4 (SEQ ID NO: 4) stimulated 0.9% and LV-GGPS1 #1 (SEQ ID NO: 70) shRNA stimulated 0.58%. […]

The mark [1] stands for this setting: Example 26, FIG. 30, LV-FDPS shRNA #4 transduced HepG2 cells, drug 1 μM, 24 hours.
Where [2] appears, read: Example 26, FIG. 30, LV-control transduced HepG2 cells, 1 μM, 24 hours, untreated 1.82%.

Consider three compounds from patent US12559769B2, “Methods and compositions for the activation of tumor cytotoxicity via human gamma-delta t-cells” (priority 2017, dated 2026).

The structures appear in SMILES notation.

Consider `O=P(O)(O)C(O)(Cn1ccnc1)P(=O)(O)O` [zoledronic acid], for which the “percent of TNF-α expressing Vγ9Vδ2 T cells” value runs as follows: (Example 4, LV-vector (control) transduced HepG2 cells, 1 μM zoledronic acid) 7.2%; (Example 20, LV-control transduced HepG2 cells, 1 μM zoledronic acid) 6.88%; under setting [1], 50.8%; under setting [2], 3.02%.

On to `COC(=O)[C@H](CCSC)NC(=O)c1ccc(NC[C@@H](N)CS)cc1-c1ccccc1` [FT1277], for which the “percent of TNF-α expressing Vγ9Vδ2 T cells” value is recorded as 2.69% under setting [1] and 1.72% under setting [2].

Regarding `C=C(CC[C@]12O[C@H](C(=O)O)[C@@](O)(C(=O)O)[C@](C(=O)O)(O1)[C@H](OC(=O)/C=C/[C@@H](C)C[C@@H](C)CC)[C@H]2O)[C@@H](OC(C)=O)[C@H](C)Cc1ccccc1` [zaragozic acid], the “percent of TNF-α expressing Vγ9Vδ2 T cells” value (Example 26, FIG. 30, LV-FDPS shRNA #4 transduced HepG2 cells, drug 5 μM, 24 hours) was 2.82% and the “percent of TNF-α expressing Vγ9Vδ2 T cells” value (Example 26, FIG. 30, LV-control transduced HepG2 cells, 5 μM, 24 hours, untreated 1.82%) is reported as 1.63%.
